Assays:
[1] = Resistance factor of compound was determined from cisplatin resistant A2780 cell lines to that of A2780 cell lines; assay type: functional
[2] = test system: A2780; assay: In vitro cytotoxicity of compound was determined against A2780 cell lines (cisplatin resistant) at 37 degree C for 96 hr; assay type: functional, Homo sapiens
[3] = test system: CH1; assay: In vitro cytotoxicity of compound was determined against CH1 cell lines at 37 degree C for 96 hr; assay type: functional, Homo sapiens
[4] = test system: CH1; assay: In vitro cytotoxicity of compound was determined against CH1 (cisplatin resistant) cell lines at 37 degree C for 96 hr; assay type: functional, Homo sapiens
[5] = test system: A2780; assay: In vitro cytotoxicity of compound was determined against A2780 cell lines at 37 degree C for 96 hr; assay type: functional, Homo sapiens
[6] = test system: Nucleic Acid; assay: Change in thermal denaturation temperature determined from calf thymus DNA after incubation at 37 degree celsius for 18 hours; assay type: functional; settings: Bos taurus
[7] = test system: SK-OV-3; assay: In vitro cytotoxicity of compound was determined against SKOV-3 cell lines at 37 degree C for 96 hr; assay type: functional, Homo sapiens
[8] = test system: Nucleic Acid; assay: Change in thermal denaturation temperature determined from calf thymus DNA after incubation at 37 degree celsius for 4 hours; assay type: functional; settings: Bos taurus
[9] = Resistance factor of compound was determined from cisplatin resistant CH1 cell lines to that of CH1 cell lines; assay type: functional
[10] = test system: Nucleic Acid; assay: Change in thermal denaturation temperature determined from calf thymus DNA after incubation at 37 degree celsius for 0 hours; assay type: functional; settings: Bos taurus

SMILES | Resistance factor [1] | Cytotoxicity [2] [µM] | Cytotoxicity [3] [µM] | Cytotoxicity [4] [µM] | Cytotoxicity [5] [µM] | ΔTm [6] [°C] | Cytotoxicity [7] [µM] | ΔTm [8] [°C] | Resistance factor [9] | ΔTm [10] [°C]
C/C=C1/C[C@H]2C=Nc3cc(OC)c(OC)cc3C(=O)N2C1 | 1.9 | 0.14 | 0.035 | 0.056 | 0.071 | 1.86 | 0.135 | 1.47 | 1.6 | 0.84
COc1cc2c(cc1OC)C(=O)N1CCC[C@H]1C=N2 | 2.4 | 0.155 | 0.082 | 0.11 | 0.064 | 0.57 | 1.7 | 0.43 | 1.3 | 0.24
C/C=C1/C[C@H]2C=Nc3cc(OCc4ccccc4)c(OC)cc3C(=O)N2C1 | 1.9 | 0.066 | 0.031 | 0.031 | 0.034 | 2.34 | 0.081 | 1.65 | 1 | 0.92
C/C=C1/C[C@H]2C=Nc3cc(O)c(OC)cc3C(=O)N2C1 | – | – | 0.00013 | – | – | – | – | – | – | –
C=C1C[C@H]2C=Nc3cc(OCc4ccccc4)c(OC)cc3C(=O)N2C1 | 6.9 | 0.2 | 0.017 | 0.082 | 0.029 | 1.33 | 0.35 | 1.22 | 4.8 | 1.01
C=C1C[C@H]2C=Nc3cc(OC)c(OC)cc3C(=O)N2C1 | 2.4 | 0.36 | 0.066 | 0.084 | 0.15 | 2.38 | 0.39 | 1.95 | 1.3 | 1.46
COc1cc2c(cc1OCc1ccccc1)N=C[C@@H]1CCCN1C2=O | 2.8 | 0.48 | 0.145 | 0.145 | 0.17 | 0.4 | 0.46 | 0.4 | 1 | 0.2
